Assay [1] addresses T1, DNA topoisomerase I/type IB small subunit (Leishmania donovani, UniProt E9B7X3+E9BRC0).
T1 sequence (E9B7X3 whole entry): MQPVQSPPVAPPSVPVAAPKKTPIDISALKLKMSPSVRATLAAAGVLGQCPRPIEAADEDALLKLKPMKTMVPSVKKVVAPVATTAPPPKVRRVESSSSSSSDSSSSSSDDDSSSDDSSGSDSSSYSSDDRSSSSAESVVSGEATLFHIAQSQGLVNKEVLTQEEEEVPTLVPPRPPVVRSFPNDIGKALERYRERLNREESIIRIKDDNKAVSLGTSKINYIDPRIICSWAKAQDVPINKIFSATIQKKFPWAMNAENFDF
T1 sequence (E9BRC0 whole entry): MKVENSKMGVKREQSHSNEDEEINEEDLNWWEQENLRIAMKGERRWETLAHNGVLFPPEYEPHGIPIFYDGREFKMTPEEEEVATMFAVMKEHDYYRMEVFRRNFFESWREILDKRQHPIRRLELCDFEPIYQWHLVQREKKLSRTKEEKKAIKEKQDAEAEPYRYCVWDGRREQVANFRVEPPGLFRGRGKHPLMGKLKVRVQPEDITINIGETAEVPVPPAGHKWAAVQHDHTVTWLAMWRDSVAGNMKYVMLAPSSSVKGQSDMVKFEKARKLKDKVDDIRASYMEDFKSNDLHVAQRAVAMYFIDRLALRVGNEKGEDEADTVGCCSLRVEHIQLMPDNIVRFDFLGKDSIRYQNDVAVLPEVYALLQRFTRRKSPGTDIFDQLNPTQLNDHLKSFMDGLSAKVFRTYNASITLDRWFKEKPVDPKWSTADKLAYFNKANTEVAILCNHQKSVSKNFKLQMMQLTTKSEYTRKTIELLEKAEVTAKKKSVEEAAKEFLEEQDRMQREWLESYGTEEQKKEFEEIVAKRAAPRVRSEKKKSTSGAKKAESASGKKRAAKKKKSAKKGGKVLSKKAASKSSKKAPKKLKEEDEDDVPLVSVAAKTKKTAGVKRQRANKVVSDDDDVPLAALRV
As to the kind of experiment: Stimultaneous Relaxation Assay. The conditions noted are these: pH 7.5. The protocol:
(§1) In simultaneous relaxation assay, CPT concentrations were 50 and 100 μM, whereas concentration of compounds were 50, 100 and 200 μM. Relaxation assay was carried out as described previously with LdTOPILS serially diluted in the relaxation buffer (25mM Tris-HCl pH 7.5, 5% glycerol, 0.5mM DTT, 10mM MgCl2, 2.5mM EDTA and […]) supercoiled pBluescript (SK ) DNA and 50mM KCl. The amount of supercoiled monomer DNA band fluorescence after ethidium bromide (EtBr) ([…]) staining was quantitated by using GEL Doc 2000 from Biorad (Hercules, CA, USA).

Assay [2] addresses T1, DNA topoisomerase I/type IB small subunit. As to the kind of experiment: Preincubation Relaxation Assay. The conditions noted are these: pH 7.5. The protocol: as §1, with “In the preincubation” for “In simultaneous relaxation”, “whereas various concentrations” for “whereas concentration”, “were 25, 50 and” for “were 50,”, “100” for “100 and 200”, “μM. LdTOP1LS was preincubated with compounds 3a-d at different concentrations for 5 min at 37 °Cbefore the addition of substrate DNA.” for “μM.”

As usually defined, the IC50 is the midpoint of a concentration-inhibition curve. A higher IC50 goes with a need for much substance. `CN(C)c1ccc(C(C2=C(O)C(=O)c3ccccc3C2=O)C2=C(O)C(=O)c3ccccc3C2=O)cc1` [Bi-lawsone analog, 3b] had an IC50 in assay [1] of 37.5 µM.
Consider `O=C1C(O)=C(C(C2=C(O)C(=O)c3ccccc3C2=O)c2ccccc2)C(=O)c2ccccc21` [Bi-lawsone analog, 3a], for which the half-inhibitory concentration (IC50) in assay [1] turned out to be 51 µM; in assay [2] it was 16 µM.
As to `COc1cc(C(C2=C(O)C(=O)c3ccccc3C2=O)C2=C(O)C(=O)c3ccccc3C2=O)ccc1O` [Bi-lawsone analog, 3c], inhibition in assay [2] was half-maximal at 14 µM (IC50).
For the molecule `O=C1C(O)=C(C(C2=C(O)C(=O)c3ccccc3C2=O)c2ccc(O)cc2)C(=O)c2ccccc21` [Bi-lawsone analog, 3d], the values for the IC50 in assay [1] and in assay [2] were 70 µM and 13 µM, respectively.
